Legend:
[1] = biological target: T1, G2A (Homo sapiens, UniProt Q9UNW8); details: reported by Kabarowski et al., Science 2001; cited from earlier work
T1 sequence (Q9UNW8 1-380): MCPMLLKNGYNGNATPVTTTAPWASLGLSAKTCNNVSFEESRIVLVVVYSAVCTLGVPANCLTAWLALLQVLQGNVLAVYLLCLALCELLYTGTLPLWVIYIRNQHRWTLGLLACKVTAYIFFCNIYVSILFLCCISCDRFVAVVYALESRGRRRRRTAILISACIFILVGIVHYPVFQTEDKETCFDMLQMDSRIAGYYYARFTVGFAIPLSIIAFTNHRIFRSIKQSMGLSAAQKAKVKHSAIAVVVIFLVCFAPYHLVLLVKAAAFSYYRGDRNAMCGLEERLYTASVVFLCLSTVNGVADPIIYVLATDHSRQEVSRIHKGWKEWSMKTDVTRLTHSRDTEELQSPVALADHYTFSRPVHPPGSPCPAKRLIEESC

[2] = system: neutrophils; assay: Inhibition of anti-apoptosis of neutrophils by inflammation mediators (AcOr/EtBr staining); type: cell-based, human; details: 15 μM and 30 μM, 1 hour before 1 μg/ml LPS, read after 24 hours
Description: Neutrophils were isolated from healthy adults using discontinuous percoll gradient according to the method of Szucs, S. et al. (J. Immunol. Methods, 167: 245-251, 1994). First, plasmas were separated from heparinized whole blood, and red blood cells were depleted by dextran sedimentation. Thereafter, leukocytes were layered over a percoll gradient with densities of 1.077 and 1.094 (Pharmacia, Sweden). Separated neutrophil layers were recovered from the percoll gradient interface, and then washed with HBSS (Hank's balanced salt solution, Sigma Chemical Co., USA). The remaining pellet was resuspended in RPMI 1640 medium supplemented with 10% FBS (fetal bovine serum) and 2 mM gentamicin. As a result of the examination of the cytospin stained with Wright-Giemsa (Sigma Chemical Co., USA), it was observed that the resuspension solution contained 95% or more neutrophils. Also, as a result of examination using trypan blue dye exclusion method, 98% or more neutrophils were observed.
1×10^5 neutrophil cells isolated in above Example <1-1> were cultured in a 96-well plate to which RPMI1640 medium containing 10% FBS was added. Thereafter, they were treated with 1-stearoyl lysophosphatidylcoline (Sigma Chemical Co., USA) in concentrations of 15 μM and 30 μM, respectively. After 1 hour, they were treated with 1 μg/ml LPS (Sigma Chemical Co.). After 24 hours, the medium was removed from the plats, and the remaining cells were washed twice with PBS (phosphate-buffered saline) buffer at 4° C. The cells adhered to the bottom of the plate were all scraped and put into a 1.5-ml eppendorf tube. Then, they were centrifuged at 2500 rpm for 5 min, and the supernatant was removed. Again, 0.1 ml of PBS buffer at 4° C. was added to the pellet, which was then well mixed using pipetting. To 25 μl of the cell suspension was added 2 μl of AcOr/EtBr dye solution in which 100 μg/ml of acridine orange (AcOr) and 100 μg/ml of ethidium bromide (EtBr) were mixed. Then, the percentage of apoptotic cells/total cells was calculated with observing the neutrophil cells under a fluorescence microscope. […]

[3] = system: CLP-induced Sepsis model; assay: CLP-induced sepsis model; type: in vivo, ICR mice; details: 10 mg/kg intraperitoneal, same methods as Example 6-2 (four times at 12 hour intervals, 2 hours after CLP)
Method: After ICR mice (25-30 g in body weight; MJ Ltd.) had been anesthetized with pentobarbital, right abdominal sites of the mice were dissected in a length of 1 cm to expose their cecum, and sites below the ileocecal valve were ligated. And then, after 4˜6 punctures had been created on the cecum with 21-gauge needle, the abdomen was sutured again to cause peritonitis, thereby inducing Sepsis.
After the peritoneal cavity of mice had been exposed, it was washed with sterilized saline (2 ml). The resultant solution was diluted with HBSS (Sigma Chemical Co., USA) in a ratio of 1/1000, and then 10 μl of each diluted solution was spread on Trypticase Soy agar (BBL, Becton Dickinson Co., USA) plates. After overnight incubation at 37° C., colony forming unit (CFU) was measured.
7 mice were administered with 1-stearoyl LPC (Sigma Chemical Co., USA) dissolved in 1% BSA solution containing no fatty acid in an amount of 10 mg/kg by subcutaneous injection 2 and 14 hours after the CLP surgery, respectively (experimental group). The remaining 7 mice were administered with 1% BSA solution containing no fatty acid of the same amount as above in the same manner (control group). The numbers of intraperitoneal E. coli cells in the ICR mice of experimental and control groups were measured in accordance with Reference Example 3, 24 hours after the CLP surgery.
Each 10 ICR mice were intraperitoneally administered with 1-stearoyl LPC (Sigma Chemical Co., USA) dissolved in 1% BSA solution containing no fatty acid in amounts of 5, 10, and 20 mg/kg, respectively, four times at intervals of 12 hours, 2 hours after the CLP surgery (experimental group-1, -2 and -3). The remaining 10 ICR mice were administered only with 1% BSA solution containing no fatty acid (control group). And then, the survival rates of mice in experimental- and control groups were investigated over the lapse of time.
10 mice for the experimental group were intraperitoneally administered with 1-stearoyl LPC (Sigma Chemical Co., USA) dissolved in 1% BSA solution containing no fatty acid in an amount of 10 mg/kg, four times at intervals of 12 hours, 10 hours after the CLP surgery. The remaining 10 mice for the control group were administered only with 1% BSA solution containing no fatty acid. Thereafter, the survival rates of ICR mice in experimental- and control groups were investigated over the lapse of time.
CLP-induced Sepsis model mice were subcutaneously injected with SPC, instead of 1-stearoyl LPC, in dosages of 3 mg/kg and 30 mg/kg four times at intervals of 12 hours, 2 hours after the CLP surgery, respectively. The survival rates of mice were investigated.

Compound | affinity of G2A to the ligand [1] | percentage of neutrophil apoptosis (apoptotic cells/total cells) that had been decreased by LPS [2] | therapeutic effect against Sepsis (survival) [3]
CCCCCCCCCCCCC/C=C/[C@@H](O)[C@@H](N)COP(=O)([O-])OCC[N+](C)(C)C [SPC, sphingosylphosphorylcholine] | low affinity | increased by SPC in a concentration-dependent manner | –
CCCCCCCC/C=C\CCCCCCCC(=O)OCC(O)COP(=O)([O-])OCC[N+](C)(C)C (centres unmarked) [1-oleoyl LPC, 1-oleoyl (18:1) lysophosphatidylcholine] | – | – | excellent therapeutic effect
lysophosphatidylcholine | high affinity | – | –
CCCCCCCCCCCCCC(=O)OC[C@@H](O)COP(=O)([O-])OCC[N+](C)(C)C [1-myristoyl LPC, 1-myristoyl (14:0) lysophospatidylcholine] | – | – | excellent therapeutic effect

Source: US7410955B2, “Therapeutic use of agonist ligands specific to G2A receptor” (Biosynergen, Inc., priority 2002, dated 2008)
